Reference: patent US8937039B2, “Peptide-based peroxidase inhibitors and methods of using same” (The Medical College of Wisconsin, Inc., priority 2009, dated 2015)
Residues, ends and D or L forms follow the SMILES beside them.

How the values were obtained:
[1] = system: SCD mice; assay: Vasodilatation of pressurized facialis arteries from SCD mice treated in vivo; set-up: species or system mouse; conditions: KYC, three weeks
Method: Murine Model of Sickle Cell Disease. Mice treated with KYC in vivo. SCD mice were treated with KYC (intraperitoneal injection: IP 0.3 mg/kg/d) or with PBS (IP 100 μL) for 3 weeks. Anesthesia was induced with Ketamine (100 mg/kg)+Xylazine (10 mg/kg) cocktail (ip) and then sacrificed by exsanguination. Facialis arteries were atraumatically dissected and maintained in cooled MOPS solution (in mM: NaCl 145, KCL 4.7, CaCl2 2, NaH2PO4 1.2, MgSO4, 1.2, pyruvate 2, EDTA 0.02, MOPS 3.0, and glucose 5.0, at pH 7.4). Vessels were then submerged in a MOPS bath, mounted on MOPS-containing glass capillary tubes, internally pressurized (60 mmHg), and warmed to 37° C. Internal vascular diameters were measured with a calibrated video-microscope (Boeckeler). After the vessel was allowed to acclimate to 37° C. (approximately 30 min), the diameter was measured and recorded (Dmax). […] A control dose-response curve using acetylcholine (ACh, 10^−7-10^−4 M) was performed and vessel diameter recorded. […] Vasodilation to papaverine ([…]) was determined after all treatments to ensure smooth muscle viability. Vasodilation was calculated as a percent of maximal vessel diameter change.
Vasodilatation. […] Physiological responses to increasing concentrations of acetylcholine (ACh) were determined by videomicroscopy as previously described.

[2] = system: SCD mice; assay: WBC counts in treated SCD mice (cytometry); assay type: in vivo, mouse; conditions: KYC-treated SCD mice
Method: […] vascular function in SCD mice. To determine whether inhibiting MPO improves vascular function and/or reduces inflammation in vivo, SCD mice were treated with KYC for three weeks. […] Such physiological and structural changes are consistent with immunofluorescent studies showing that chlorotyrosine and MPO levels are reduced in the aortas of KYC-treated SCD mice compared with non-treated SCD mice (FIG. 13). High WBC counts are indicative of on-going inflammation in SCD and predictive of future vaso-occlusive events. Accordingly, WBC levels were quantified in the SCD mice using standard cytometry assays.

[3] = Solubility in aqueous buffers; assay type: physicochemical
[4] = system: facialis arteries from non-treated SCD mice; assay: Vasodilatation of facialis arteries from untreated SCD mice, peptide added ex vivo; set-up: species or system mouse; conditions: KYC 1.5 μg/ml, 20 min
Method: For vessels treated with KYC (ex-vivo): Using untreated SCD mice, the vessels were isolated/cannulated the same as for the mice treated with KYC in vivo. After the control dose-response curve using acetylcholine (ACh, 10^−7-10^−4 M) and subsequent washing, the vessels were incubated with KYC 1.5 μg/ml for 20 minutes, pre-constricted, and exposed to acetylcholine (ACh, 10^−7-10^−4 M). Vasodilation to papaverine (2.0×10^−4 M) was determined after all treatments to ensure smooth muscle viability. Vasodilation was calculated as a percent of maximal vessel diameter change.

[5] = target: T1, MPO (Homo sapiens, UniProt P05164); assay: MPO-mediated nitration of BSA (western blot for nitrotyrosine); assay type: biochemical; set-up: purchased Lee Biosolutions (St. Louis, Mo.); conditions: for MPO-mediated BSA nitration (in words): H2O2 100 μM, nitrite 100 μM
T1 sequence (P05164 49-745): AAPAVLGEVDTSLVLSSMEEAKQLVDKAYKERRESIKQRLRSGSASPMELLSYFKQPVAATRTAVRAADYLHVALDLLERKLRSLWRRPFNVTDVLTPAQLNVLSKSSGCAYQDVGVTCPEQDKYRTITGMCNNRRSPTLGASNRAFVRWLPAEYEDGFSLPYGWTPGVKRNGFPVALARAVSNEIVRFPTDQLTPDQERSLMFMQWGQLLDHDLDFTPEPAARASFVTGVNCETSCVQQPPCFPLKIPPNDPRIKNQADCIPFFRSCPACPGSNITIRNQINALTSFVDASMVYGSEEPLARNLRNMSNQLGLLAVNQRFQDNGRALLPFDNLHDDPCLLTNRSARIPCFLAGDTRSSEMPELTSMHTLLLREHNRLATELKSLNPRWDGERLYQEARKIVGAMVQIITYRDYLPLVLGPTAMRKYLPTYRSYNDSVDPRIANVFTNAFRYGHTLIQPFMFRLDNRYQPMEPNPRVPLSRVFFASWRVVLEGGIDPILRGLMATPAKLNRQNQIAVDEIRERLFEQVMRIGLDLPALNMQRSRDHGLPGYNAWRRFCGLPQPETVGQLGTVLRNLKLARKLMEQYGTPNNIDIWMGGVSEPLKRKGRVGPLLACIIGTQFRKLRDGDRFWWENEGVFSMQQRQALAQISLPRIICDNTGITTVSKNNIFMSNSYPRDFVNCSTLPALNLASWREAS
Method: MPO-mediated Nitration of Bovine Serum Albumin (BSA). BSA (0.5 mg/mL) was incubated with MPO (20 nM), H2O2 (100 μM), nitrite (100 μM) and increasing concentrations of KYC in phosphate buffer (100 mM, pH 7.4) containing DTPA (100 μM) for 30 min. Reactions were stopped by addition of catalase. Nitrotyrosine formation was assessed by western blot analysis.
MPO-mediated Nitration of Bovine Serum Albumin (BSA): BSA (0.5 mg/mL) was incubated with MPO (20 nM), H2O2 (25 μM), NaNO2 (50 μM) and increasing concentrations of KYC in phosphate buffer (100 mM, pH 7.4) containing DTPA (100 μM) for 30 min. Reactions were halted by addition of catalase (2,000 units/mL). NO2Tyr formation was assessed by western blot analysis with an anti-NO2Tyr rabbit polyclonal antibody (EMD, Gibbstown, N.J.).

Compound: CC(=O)N[C@@H](CCCCN)C(=O)N[C@@H](Cc1ccc(O)cc1)C(=O)N[C@@H](CS)C(N)=O [KYC, N-acetyl Lysyltyrosylcysteine Amide] (Ac-Lys-Tyr-Cys-NH2)
- Endothelium- and eNOS-dependent vasodilatation (in words) [1]: dramatically increases
- Reduction of WBC counts (in words) [2]: more than half
- Solubility in water / aqueous buffers (in words) [3]: highly water soluble
- Vasodilatation in response to ACh, peptide added to vessel bath (in words) [4]: did not increase vasodilatation
- inhibition at 12.5 µM ([5]; 12.5 μM KYC, H2O2 25 μM, NaNO2 50 μM, read-out: Inhibition of NO2Tyr formation in BSA): 50%
- MPO-mediated BSA nitration (in words) ([5]; 30 μM KYC): inhibits
- NO2Tyr formation in BSA (in words) ([5]; 50 μM KYC, H2O2 25 μM, NaNO2 50 μM): essentially ablated
- MPO-mediated BSA nitration (in words) ([5]; 250 μM KYC): essentially ablates
